Assay results as given in patent US20210253575A1, “PYRROLIDINE AMINE COMPOUNDS FOR THE TREATMENT OF AUTOIMMUNE DISEASE” (Hoffmann-La Roche Inc., priority 2018, published 2021).

Molecular target: T1, human TLR9 (Homo sapiens, UniProt Q9NR96)
T1 sequence (Q9NR96 26-1032): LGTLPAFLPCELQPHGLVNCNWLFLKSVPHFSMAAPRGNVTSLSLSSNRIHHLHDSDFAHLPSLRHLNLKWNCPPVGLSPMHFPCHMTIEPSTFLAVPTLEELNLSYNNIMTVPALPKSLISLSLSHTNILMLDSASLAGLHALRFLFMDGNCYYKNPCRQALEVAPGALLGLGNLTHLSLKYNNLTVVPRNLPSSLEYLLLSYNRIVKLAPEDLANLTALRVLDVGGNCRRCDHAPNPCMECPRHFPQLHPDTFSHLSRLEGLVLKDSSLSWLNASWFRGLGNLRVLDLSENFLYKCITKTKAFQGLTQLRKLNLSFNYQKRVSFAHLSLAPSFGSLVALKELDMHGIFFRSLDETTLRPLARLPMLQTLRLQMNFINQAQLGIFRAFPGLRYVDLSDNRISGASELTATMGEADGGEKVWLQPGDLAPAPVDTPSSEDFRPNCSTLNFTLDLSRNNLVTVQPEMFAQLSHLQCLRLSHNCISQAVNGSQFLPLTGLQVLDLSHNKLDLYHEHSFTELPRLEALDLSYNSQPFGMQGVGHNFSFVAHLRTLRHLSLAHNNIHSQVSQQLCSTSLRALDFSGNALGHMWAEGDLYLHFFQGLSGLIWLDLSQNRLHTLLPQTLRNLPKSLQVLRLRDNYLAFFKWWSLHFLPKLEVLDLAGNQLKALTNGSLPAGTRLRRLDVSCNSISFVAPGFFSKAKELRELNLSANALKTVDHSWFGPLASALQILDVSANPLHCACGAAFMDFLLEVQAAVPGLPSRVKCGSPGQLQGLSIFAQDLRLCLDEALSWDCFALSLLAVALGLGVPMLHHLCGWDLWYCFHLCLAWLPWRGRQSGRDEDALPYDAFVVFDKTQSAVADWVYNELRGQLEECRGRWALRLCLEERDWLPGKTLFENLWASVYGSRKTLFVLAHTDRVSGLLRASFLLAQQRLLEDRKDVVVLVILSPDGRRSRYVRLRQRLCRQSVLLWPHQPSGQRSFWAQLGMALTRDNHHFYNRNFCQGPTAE
Assay: HEK293-Blue-hTLR-9 cells assay (SEAP reporter, ODN2006 stimulation)
Type: cell-based
Details: HEK293-Blue-hTLR9 cells, ODN2006 ligand, 20 hrs incubation
Protocol: The following tests were carried out in order to determine the activity of the compounds of formula (I) in HEK293-Blue-hTLR-7/8/9 cells assay.
HEK293-Blue-hTLR-9 Cells Assay:
A stable HEK293-Blue-hTLR-9 cell line was purchased from InvivoGen (Cat. #: hkb-htlr9, San Diego, Calif., USA). These cells were originally designed for studying the stimulation of human TLR9 by monitoring the activation of NF-κB. A SEAP (secreted embryonic alkaline phosphatase) reporter gene was placed under the control of the IFN-β minimal promoter fused to five NF-κB and AP-1-binding sites. The SEAP was induced by activating NF-κB and AP-1 via stimulating HEK-Blue hTLR9 cells with TLR9 ligands. Therefore the reporter expression was declined by TLR9 antagonist under the stimulation of a ligand, such as ODN2006 (Cat. #: tlrl-2006-1, Invivogen, San Diego, Calif., USA), for incubation of 20 hrs. The cell culture supernatant SEAP reporter activity was determined using QUANTI-Blue™ kit (Cat. #: rep-qb1, Invivogen, San Diego, Calif., USA) at a wavelength of 640 nm, a detection medium that turns purple or blue in the presence of alkaline phosphatase.
HEK293-Blue-hTLR9 cells were incubated at a density of 250,000˜450,000 cells/mL in a volume of 170 μL in a 96-well plate in Dulbecco's Modified Eagle's medium (DMEM) containing 4.5 g/L glucose, 50 U/mL penicillin, […], […], 2 mM L-glutamine, 10% (v/v) heat-inactivated fetal bovine serum with addition of 20 μL test compound in a serial dilution in the presence of final DMSO at 1% and 10 μL of 20 uM ODN2006 in above DMEM, perform incubation under 37° C. in a CO2incubator for 20 hrs. Then 20 μL of the superatant from each well was incubated with 180 μL Quanti-blue substrate solution at 37° C. for 2 hrs and the absorbance was read at 620˜655 nm using a spectrophotometer. The signalling pathway that TLR9 activation leads to downstream NF-κB activation has been widely accepted, and therefore similar reporter assay was modified for evaluating TLR9 antagonist.

| Structure (SMILES) | IC50 [nM] |
| --- | --- |
| CC[C@@H]1CN(c2ccc(C#N)c3ncccc23)C[C@H]1CN1CCC2(CCNCC2)CC1 (relative stereo) [Example 15, 5-[Trans-3-(3,9-diazaspiro[5.5]undecan-3-ylmethyl)-4-ethyl-pyrrolidin-1-yl]quinoline-8-carbonitrile] | 32 |
| FC(F)(F)c1ccc(N2C[C@@H](CN3CCC4(CCNC4)C3)[C@H](C(F)(F)F)C2)c2nccnc12 (relative stereo) [Example 19, 5-[Trans-3-(2,7-diazaspiro[4.4]nonan-2-ylmethyl)-4-(trifluoromethyl)pyrrolidin-1-yl]-8-(trifluoromethyl)quinoxaline] | 815 |
| C[C@@H]1CN(c2ccc(C(F)(F)F)c3nccnc23)C[C@H]1CN1CCC2(CCNCC2)CC1 (relative stereo) [Example 21, 3-[[Trans-4-methyl-1-[8-(trifluoromethyl)quinoxalin-5-yl]pyrrolidin-3-yl]methyl]-3,9-diazaspiro[5.5]undecane] | 294 |
| N#Cc1ccc(N2C[C@@H](CN3CCC4(CCNCC4)CC3)[C@H](C(F)F)C2)c2cccnc12 (relative stereo) [Example 27, 5-[Trans-3-(3,9-diazaspiro[5.5]undecan-3-ylmethyl)-4-(difluoromethyl)pyrrolidin-1-yl]quinoline-8-carbonitrile] | 32 |
| N#Cc1ccc(N2C[C@@H](CN3CCC4(CCNCC4)CC3)[C@H](C3CC3)C2)c2cccnc12 (relative stereo) [Example 28, 5-[Trans-3-cyclopropyl-4-(3,9-diazaspiro[5.5]undecan-3-ylmethyl)pyrrolidin-1-yl]quinoline-8-carbonitrile] | 39 |
| CC[C@@H]1CN(c2ccc(C#N)c3ncccc23)C[C@H]1CN1CCC2(CCNC2)C1 (relative stereo) [Example 29, 5-[Trans-3-(2,7-diazaspiro[4.4]nonan-2-ylmethyl)-4-ethyl-pyrrolidin-1-yl]quinoline-8-carbonitrile] | 56 |
| C[C@@H]1CN(c2ccc(C(F)(F)F)c3nccnc23)C[C@H]1CN1CCC(N2CCCCC2)CC1 (relative stereo) [Example 33, 5-[Trans-3-methyl-4-[[4-(1-piperidyl)-1-piperidyl]methyl]pyrrolidin-1-yl]-8-(trifluoromethyl)quinoxaline] | 863 |
| N#Cc1ccc(N2C[C@@H](CN3CCC4(CCNC4)C3)[C@H](C(F)F)C2)c2cccnc12 (relative stereo) [Example 34, 5-[Trans-3-(2,7-diazaspiro[4.4]nonan-2-ylmethyl)-4-(difluoromethyl)pyrrolidin-1-yl]quinoline-8-carbonitrile] | 85 |
| CC(C)[C@@H]1CN(c2ccc(C#N)c3ncccc23)C[C@H]1CN1CCC2(CCNCC2)CC1 (relative stereo) [Example 36, 5-[Trans-3-(3,9-diazaspiro[5.5]undecan-3-ylmethyl)-4-isopropyl-pyrrolidin-1-yl]quinoline-8-carbonitrile] | 50 |
| CC(C)[C@@H]1CN(c2ccc(C#N)c3ncccc23)C[C@H]1CN1CCC2(CCNC2)C1 (relative stereo) [Example 44, 5-[Trans-3-(2,7-diazaspiro[4.4]nonan-2-ylmethyl)-4-isopropyl-pyrrolidin-1-yl]quinoline-8-carbonitrile] | 91 |
| N#Cc1ccc(N2CC(CN3CCC(N)CC3)C3(CC3)C2)c2nccnc12 (single isomer, unassigned) [Example 68A, 8-[7-[(4-Amino-1-piperidyl)methyl]-5-azaspiro[2.4]heptan-5-yl]quinoxaline-5-carbonitrile] | 71 |
| N#Cc1ccc(N2C[C@H](CN3CCC4(CCNCC4)CC3)[C@@H](C(F)(F)F)C2)c2nccnc12 [Example 1, 8-[(3S,4R)-3-(3,9-diazaspiro[5.5]undecan-3-ylmethyl)-4-(trifluoromethyl)pyrrolidin-1-yl]quinoxaline-5-carbonitrile] | 106 |
| N#Cc1ccc(N2C[C@H](CN3CCC4(CCNCC4)CC3)[C@@H](C(F)(F)F)C2)c2cccnc12 [Example 2, 5-[(3S,4R)-3-(3,9-diazaspiro[5.5]undecan-3-ylmethyl)-4-(trifluoromethyl)pyrrolidin-1-yl]quinoline-8-carbonitrile] | 76 |
| N#Cc1ccc(N2C[C@H](CN3CCC4(CCNC4)C3)[C@@H](C(F)(F)F)C2)c2nccnc12 (stereo partly drawn) [Example 5, 8-[(3S,4R)-3-(2,7-diazaspiro[4.4]nonan-2-ylmethyl)-4-(trifluoromethyl)pyrrolidin-1-yl]quinoxaline-5-carbonitrile] | 137 |
| N#Cc1ccc(N2C[C@H](CN3CCC4(CCCNC4)C3)[C@@H](C(F)(F)F)C2)c2cccnc12 (stereo partly drawn) [Example 6, 5-[(3S,7R)-3-(2,9-diazaspiro[4.5]decan-2-ylmethyl)-4-(trifluoromethyl)pyrrolidin-1-yl]quinoline-8-carbonitrile] | 136 |
| CC1(N)CCN(CC2CN(c3ccc(C#N)c4nccnc34)CC23CC3)CC1 (centres unmarked) [Example 7, 8-[7-[(4-Amino-4-methyl-1-piperidyl)methyl]-5-azaspiro[2.4]heptan-5-yl]quinoxaline-5-carbonitrile] | 77 |
| N#Cc1ccc(N2C[C@H](CN3CC4(CCCNC4)C3)[C@@H](C(F)(F)F)C2)c2cccnc12 [Example 8, 5-[(3S,7R)-3-(2,8-diazaspiro[3.5]nonan-2-ylmethyl)-4-(trifluoromethyl)pyrrolidin-1-yl]quinoline-8-carbonitrile] | 113 |
| N#Cc1ccc(N2C[C@H](CN3CCC4(CCNC4)C3)[C@@H](C(F)(F)F)C2)c2cccnc12 (stereo partly drawn) [Example 9, 5-[(3S,4R)-3-(2,7-diazaspiro[4.4]nonan-2-ylmethyl)-4-(trifluoromethyl)pyrrolidin-1-yl]quinoline-8-carbonitrile] | 104 |
| N#Cc1ccc(N2C[C@H](CN3CCC(N4CCCCC4)CC3)[C@@H](C(F)(F)F)C2)c2cccnc12 [Example 10, 5-[(3S,4R)-3-[[4-(1-piperidyl)-1-piperidyl]methyl]-4-(trifluoromethyl)pyrrolidin-1-yl]quinoline-8-carbonitrile] | 834 |
| N#Cc1ccc(N2CC(CN3CCC(N4CCCCC4)CC3)C3(CC3)C2)c2nccnc12 (centres unmarked) [Example 11, 8-[7-[[4-(1-Piperidyl)-1-piperidyl]methyl]-5-azaspiro[2.4]heptan-5-yl]quinoxaline-5-carbonitrile] | 125 |
| CC1(N)CCN(C[C@H]2CN(c3ccc(C#N)c4nccnc34)C[C@@H]2C(F)(F)F)CC1 [Example 12, 8-[(3S,4R)-3-[(4-amino-4-methyl-1-piperidyl)methyl]-4-(trifluoromethyl)pyrrolidin-1-yl]quinoxaline-5-carbonitrile] | 219 |
| N#Cc1ccc(N2CC(CN3CCC4(CCCNC4)CC3)C3(CC3)C2)c2nccnc12 (centres unmarked) [Example 13, 8-[7-(2,9-Diazaspiro[5.5]undecan-9-ylmethyl)-5-azaspiro[2.4]heptan-5-yl]quinoxaline-5-carbonitrile] | 60 |
| N#Cc1ccc(N2C[C@H](CN3CCC4(CCNC4)CC3)[C@@H](C(F)(F)F)C2)c2nccnc12 [Example 14, 8-[(3S,4R)-3-(2,8-Diazaspiro[4.5]decan-8-ylmethyl)-4-(trifluoromethyl)pyrrolidin-1-yl]quinoxaline-5-carbonitrile] | 153 |
